Common to all, as to format: cell-based
In test [1] the target is T1, endogenous GLP-1 receptors (Mus musculus, UniProt O35659).
T1 construct: Agonistic activity of the test compounds on endogenous GLP-1 receptors; endogenous in cells
T1 sequence (O35659 22-463): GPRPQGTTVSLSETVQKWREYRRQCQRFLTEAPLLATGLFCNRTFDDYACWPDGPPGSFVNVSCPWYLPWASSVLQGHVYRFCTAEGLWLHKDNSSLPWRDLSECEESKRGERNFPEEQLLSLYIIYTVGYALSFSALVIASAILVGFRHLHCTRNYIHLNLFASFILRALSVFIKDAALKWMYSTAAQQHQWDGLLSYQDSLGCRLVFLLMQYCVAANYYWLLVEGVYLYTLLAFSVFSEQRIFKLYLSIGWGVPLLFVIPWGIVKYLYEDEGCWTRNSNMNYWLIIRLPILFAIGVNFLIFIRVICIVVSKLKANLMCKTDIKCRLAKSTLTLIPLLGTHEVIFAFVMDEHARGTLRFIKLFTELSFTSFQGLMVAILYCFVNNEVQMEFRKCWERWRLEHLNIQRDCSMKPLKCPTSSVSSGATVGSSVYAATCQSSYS
Briefly: Agonistic activity on endogenous GLP-1 receptor, cAMP in murine insulinoma cell line. The following applies: intracellular cAMP. Here is the method: Agonistic activity of the test compounds on endogenous GLP-1 receptors was determined using a murine insulinoma cell line. Intracellular cAMP was used as an indicator of receptor activation.
Cells were cultured for 24 h at a density of 10,000 cells/well in a 384-well plate. Medium was removed and 10 μL KRBH buffer (NaCl 130 mM, KCl 3.6 mM, NaH2PO4 0.5 mM, MgSO4 0.5 mM, CaCl2 1.5 mM) containing test compound or GLP-1 (at increasing concentrations from 0.1 pM to 100 nM) or solvent control (0.1% (v/v) DMSO) was added to the wells for 15 minutes at a temperature of 26° C.
The cellular cAMP content is measured using the AlphaScreen cAMP Functional Assay Kit (Perkin Elmer). Measurement was performed using the Envision (PerkinElmer) according to manufacturer's recommendations.
All measurements were performed in quadruplicate.
The resulting cAMP curves were plotted as absolute cAMP concentrations (nM) over log (test compound concentration) and analyzed using the curve fitting program XLfit.

In test [2] the target is T2, human glucagon-like peptide 1 receptor (GLP-1R) (Homo sapiens, UniProt P43220).
T2 construct: expressed in transfected cells
T2 sequence (P43220 24-463): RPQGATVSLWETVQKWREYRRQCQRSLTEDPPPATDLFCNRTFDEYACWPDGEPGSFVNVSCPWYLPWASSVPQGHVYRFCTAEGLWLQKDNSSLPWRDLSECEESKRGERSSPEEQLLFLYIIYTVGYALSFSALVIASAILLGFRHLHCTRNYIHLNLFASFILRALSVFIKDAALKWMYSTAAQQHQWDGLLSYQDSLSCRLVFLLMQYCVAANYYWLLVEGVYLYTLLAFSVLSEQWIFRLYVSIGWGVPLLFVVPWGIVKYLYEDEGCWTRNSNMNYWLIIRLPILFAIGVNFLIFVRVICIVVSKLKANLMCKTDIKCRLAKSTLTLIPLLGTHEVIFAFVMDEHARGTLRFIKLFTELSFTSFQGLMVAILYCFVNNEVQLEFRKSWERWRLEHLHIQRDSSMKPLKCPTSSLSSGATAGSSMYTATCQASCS
The test is described as follows: GLP-1 receptor efficacy assay (cAMP AlphaScreen, CHO cells). Conditions: for Ratio GLP-1/Glucagon: EC50 [GLP-1R] / EC50 [Glucagon-R], human receptors in CHO-K1. In a few lines:
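Stably transfected CHO clones expressing human receptor, stimulated 15 min at room temperature with increasing peptide concentrations in KRBH (10 mM HEPES, 5 mM NaHCO3, 0.1% BSA) plus 0.1 mM IBMX. Cells lysed, and cAMP quantified by AlphaScreen after 1 h bead incubation in the dark.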
(Alpha assays give light when donor and acceptor beads are brought close together.)

Test [3] deals with T3, human glucagon receptor (Glucagon-R) (Homo sapiens, UniProt P47871).
T3 construct: expressed in transfected cells
T3 sequence (P47871 26-477): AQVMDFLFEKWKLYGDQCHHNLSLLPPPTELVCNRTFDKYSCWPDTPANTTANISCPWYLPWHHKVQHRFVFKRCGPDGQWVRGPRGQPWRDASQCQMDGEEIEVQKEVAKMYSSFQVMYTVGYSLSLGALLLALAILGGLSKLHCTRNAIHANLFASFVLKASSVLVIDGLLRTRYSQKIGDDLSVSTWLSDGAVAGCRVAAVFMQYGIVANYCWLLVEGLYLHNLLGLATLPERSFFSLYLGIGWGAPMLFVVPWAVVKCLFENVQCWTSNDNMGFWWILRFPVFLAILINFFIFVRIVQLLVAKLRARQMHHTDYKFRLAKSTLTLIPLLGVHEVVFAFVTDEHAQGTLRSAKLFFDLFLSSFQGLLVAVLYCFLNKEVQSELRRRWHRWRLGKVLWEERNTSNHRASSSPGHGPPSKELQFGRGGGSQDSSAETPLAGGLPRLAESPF
The test is described as follows: Glucagon receptor efficacy assay (cAMP AlphaScreen, CHO cells). The following applies: cAMP formation, CHO cells expressing human Glucagon-R; read-out: EC50 hGCGR CHO-K1. How it is done:
The mammalian expression vectors encoding the Glucagon-R or the GLP-1-R were transfected into Chinese hamster ovary (CHO) cells by the Attractene method. Stably expressing clones were obtained by Zeocin selection (250 μg/mL) upon limited dilution of cells resistant to the selection pressure. […] One Glucagon-R expressing clone and one GLP-1-R expressing clone were chosen for compound profiling.
CHO cells expressing the human Glucagon-R, or human GLP-1-R were seeded 24 hours prior to the assay at 30,000 cells per well in 96-well microtiter plates in culture in 100 μl growth medium. On the day of analysis, growth medium was removed and the cells were washed once with 200 μl of assay buffer (Krebs-Ringer-buffer—KRBH). The buffer was removed and the cells were incubated for 15 min at room temperature in 10 μl KRBH (KRBH+10 mM HEPES, 5 mM NaHCO3, 0.1% (V/V) BSA) with 0.1 mM IBMX in deionized water containing increasing concentrations of test peptides. The reaction was stopped by the addition of lysis buffer (0.1% w/v BSA, 5 mM HEPES, 0.3% v/v Tween-20). After cell lysis for 10 min at room temperature, lysates were transferred to 384-well plates and 10 μl of acceptor/donorbead mixture as contained in the AlphaScreen™ cAMP Functional Assay Kit was added. After one hour of incubation at room temperature in the dark, the cAMP content was determined applying the AlphaScreen™ cAMP Functional Assay Kit from Perkin-Elmer according to manufacturer instructions. […] The GLP-1/glucagon ratio is calculated as defined earlier.

Starred links: 1 amine or outer side, 2 acyl side, 3 side chain; linkers in the order of their positions; H or OH if unused. Non-standard residues stand in square brackets, D forms with d. Residues, ends and D or L forms follow the SMILES beside them. Groups on a side chain read outwards from the residue. *: point of attachment. γGlu = O=C(O)[C@H](CCC(=O)[*:2])N[*:1]; Palmitoyl = CCCCCCCCCCCCCCCC(=O)*; Ac4c = NC1(C(=O)O)CCC1; Aib = CC(C)(N)C(=O)O

Regarding `CCCCCCCCCCCCCCCC(=O)N[C@@H](CCC(=O)NCCCC[C@H](NC(=O)[C@H](CCC(=O)O)NC(=O)[C@H](CC(=O)O)NC(=O)[C@H](CC(C)C)NC(=O)[C@H](Cc1ccc(O)cc1)NC(=O)[C@H](CCCCN)NC(=O)[C@H](CO)NC(=O)[C@H](Cc1ccc(O)cc1)NC(=O)[C@H](CC(=O)O)NC(=O)[C@H](CO)NC(=O)[C@@H](NC(=O)[C@H](Cc1ccccc1)NC(=O)[C@@H](NC(=O)CNC(=O)[C@H](CCC(N)=O)NC(=O)C(C)(C)NC(=O)[C@@H](N)Cc1c[nH]cn1)[C@@H](C)O)[C@@H](C)O)C(=O)N[C@@H](C)C(=O)N[C@@H](C)C(=O)N[C@@H](CCCCN)C(=O)N[C@@H](CC(=O)O)C(=O)N[C@@H](Cc1ccccc1)C(=O)N[C@H](C(=O)N[C@@H](CCC(=O)O)C(=O)N[C@@H](Cc1c[nH]c2ccccc12)C(=O)N[C@@H](CC(C)C)C(=O)N[C@@H](CCC(=O)O)C(=O)N[C@@H](CCC(=O)O)C(=O)N[C@@H](CCC(=O)O)C(N)=O)[C@@H](C)CC)C(=O)O` [Compound 17] (H-H[Aib]QGTFTSDYSKYLDEK([γGlu-Palmitoyl])AAKDFIEWLEEE-NH2), the EC50 in test [1] is 210 pM; in test [2] (cAMP formation, CHO cells expressing human GLP-1-R, read-out: EC50 hGLP-1R CHO-K1) it was 270 pM. In addition, the “Ratio GLP-1/Glucagon” value in test [2] is 3.38.

For the molecule `CCCCCCCCCCCCCCCC(=O)N[C@@H](CCC(=O)NCCCC[C@H](NC(=O)[C@H](CO)NC(=O)[C@H](CC(=O)O)NC(=O)[C@H](CC(C)C)NC(=O)[C@H](Cc1ccc(O)cc1)NC(=O)[C@H](CCCCN)NC(=O)[C@H](CO)NC(=O)[C@H](Cc1ccc(O)cc1)NC(=O)[C@H](CC(=O)O)NC(=O)[C@H](CO)NC(=O)[C@@H](NC(=O)[C@H](Cc1ccccc1)NC(=O)[C@@H](NC(=O)CNC(=O)[C@H](Cc1c[nH]cn1)NC(=O)C1(NC(=O)[C@@H](N)Cc2c[nH]cn2)CCC1)[C@@H](C)O)[C@@H](C)O)C(=O)N[C@@H](C)C(=O)N[C@@H](C)C(=O)N[C@@H](Cc1c[nH]cn1)C(=O)N[C@@H](CC(=O)O)C(=O)N[C@@H](Cc1ccccc1)C(=O)N[C@H](C(=O)N[C@@H](CCC(=O)O)C(=O)N[C@@H](Cc1c[nH]c2ccccc12)C(=O)N[C@@H](CC(C)C)C(=O)N[C@@H](CC(C)C)C(=O)N[C@@H](CO)C(=O)N[C@@H](C)C(N)=O)C(C)C)C(=O)O` [Compound 9] (H-H[Ac4c]HGTFTSDYSKYLDSK([γGlu-Palmitoyl])AAHDFVEWLLSA-NH2), the EC50 was 200 pM in test [3] and 210 pM in test [1]. In addition, the “Ratio GLP-1/Glucagon” value in test [2] is on record as 1.65.

For orientation: EC50 means the midpoint of the concentration-response curve.

Values taken from patent US9988429B2, “Glucagon analogues” (Zealand Pharma A/S, priority 2013, dated 2018).
